Tests used:
[1] = Solubility of optional additional components in the solvents; type: physicochemical
From the text: Additional ingredients were chosen for their compatibility with (e.g., miscibility in) 1,3 propanediol, 1,2 propanediol, and 1,3 butanediol.

[2] = Procedure: A series of experiments were performed to assess and optimize the components of the subject vitamin C formulations. […] U refers to urea. % values are wt %
[3] = Comparative studies of prior-art ascorbic acid solutions; type: physicochemical; settings: ascorbic acid with urea in propylene glycol, butylene glycol and propanediol
Procedure: This example was reproduced.
All mixtures were heated to 85° C.

erythema (skin redness) = settings: concentrations of 0.2%; clinical data from SEPPIC; cited from earlier work

## COc1cc(CC(C(C)=O)C(C)=O)ccc1O [Acetyl zingerone]
[1]; at the desired concentrations (0.5-1%)
  Solubility in 1,3 propanediol, 1,2 propanediol and 1,3 butanediol: readily soluble

## O=C(O)CCCCCCCC(=O)O [AzA, Azelaic acid, reference compound]
[1]
  Concentration solubilized in 1,3 propanediol: up to 10%
  Solubility in 1,3 propanediol in the presence of hydroxyethyl urea: slightly increased
[1]; with 10% AA, 5% U
  Concentration solubilized in a 1,3 propanediol base: 7.5%

## CC1(C)[C@@H](O[C@H]2O[C@H](C(=O)O)[C@@H](O)[C@H](O)[C@H]2O[C@@H]2O[C@H](C(=O)O)[C@@H](O)[C@H](O)[C@H]2O)CC[C@]2(C)[C@H]3C(=O)C=C4[C@@H]5C[C@@](C)(C(=O)O)CC[C@]5(C)CC[C@@]4(C)[C@]3(C)CC[C@@H]12 [glycyrrhizic acid, Glycyrrhizic acid]
[1]; unlike 18B-glycyrrhetinic acid
  Solubility in 1,3-propanediol: shows solubility

## NC(N)=O [urea]
[2]
  Minimum amount U required to solubilize 20% AA: ~10%
  Solubility of U in 1,3 propanediol (saturation reached before recrystallization of U): ~27.8%
[3]
  Maximum concentrations soluble before urea starts to precipitate (the ceiling): 20%

## madecassoside
[1]; at a concentration of 0.2%
  Solubility in 1,3 propanediol, 1,2 propanediol and 1,3 butanediol: soluble
Erythema (skin redness)
  Erythema (skin redness): desirable ability to reduce erythema

From patent publication US20240390238A1, “MINIMALIST EMULSION COMPOSITIONS” (Baek Clinical Inc., priority 2021, published 2024)
